Kd data for one compound are collected here from publication PMC5296862, “Targeting the molecular chaperone SlyD to inhibit bacterial growth with a small molecule” (Scientific Reports, 2017).

The assay addresses T1, SlyD (EcSlyD) (Escherichia coli, UniProt P0A9K9).
T1 construct: residues 1–165, lacking the unstructured C-terminal tail
Description: intrinsic fluorescence titration; supported by 2D 1H-15N HSQC NMR titration, in-cell NMR and PPIase inhibition (Ki […]). The assay is classed as binding.

T1 sequence (P0A9K9 1-165): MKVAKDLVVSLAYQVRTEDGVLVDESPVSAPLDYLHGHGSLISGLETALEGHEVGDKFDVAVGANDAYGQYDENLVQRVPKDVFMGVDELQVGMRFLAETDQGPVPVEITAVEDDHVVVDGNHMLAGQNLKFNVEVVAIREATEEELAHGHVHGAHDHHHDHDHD

In turn, `[Cu+2].c1ccc(-c2cc(-c3c4ccccc4cc4ccccc34)cc(-c3ccccn3)n2)nc1.c1ccc(-c2cc(-c3c4ccccc4cc4ccccc34)cc(-c3ccccn3)n2)nc1` [Cu2+ complex] yielded a Kd of 45 µM.

By Kd is commonly meant the free concentration of one partner at which half of the binding sites on the other are occupied at equilibrium, for simple one-to-one binding. Read a low Kd as a tighter complex.
